Measurements from ChEMBL document CHEMBL1131308, “Synthesis and biological activity of 4-amino-7-oxo-substituted analogues of 5-deaza-5,6,7,8-tetrahydrofolic acid and 5,10-dideaza-5, 6,7,8-tetrahydrofolic acid” (J Med Chem, 1998).
In brackets after ≈: the same amount, converted by molar mass.

Test system: CCRF-CEM
Experiment: In vitro inhibitory activity against CCRF-CEM human leukemia cells using cytotoxicity assay.
Assay type: functional, cell-based

Question: For COC(=O)c1ccc(N(C)CC2Cc3c(N)nc(N)nc3NC2=O)cc1 (centres undefined), which IC50 is on record?
Answer: > 20 µg/mL

Question: COC(=O)c1ccc(CCC2Cc3c(N)nc(N)nc3NC2=O)cc1 (centres undefined) was tested. Which IC50 did it give?
Answer: > 20 µg/mL

Question: How did the IC50 turn out when Nc1nc(N)c2c(n1)NC(=O)C(CNc1ccc(C(=O)O)cc1)C2 (centres undefined) was run?
Answer: > 20 µg/mL

Question: With COC(=O)c1ccc(NCC2Cc3c(N)nc(N)nc3NC2=O)cc1 (centres undefined) as the compound, how does the IC50 read?
Answer: > 20 µg/mL

Question: CN(CC1Cc2c(N)nc(N)nc2NC1=O)c1ccc(C(=O)NC(CCC(=O)O)C(=O)O)cc1 (centres undefined) was tested. Which IC50 did it give?
Answer: > 20 µg/mL

Question: For CN(CC1Cc2c(N)nc(N)nc2NC1=O)c1ccc(C(=O)O)cc1 (centres undefined), which IC50 is on record?
Answer: > 20 µg/mL

Question: For Nc1nc(N)c2c(n1)NC(=O)C(CNc1ccc(C(=O)NC(CCC(=O)O)C(=O)O)cc1)C2 (centres undefined), which IC50 is on record?
Answer: > 20 µg/mL

Question: Which IC50 does the source give for Nc1nc(N)c2c(n1)NC(=O)C(CCc1ccc(C(=O)NC(CCC(=O)O)C(=O)O)cc1)C2 (centres undefined) here?
Answer: 39.2 µg/mL (≈ 85.9 µM)

Question: Nc1nc(N)c2c(n1)NC(=O)C(CCc1ccc(C(=O)O)cc1)C2 (centres undefined) was tested. Which IC50 did it give?
Answer: 6.7 µg/mL (≈ 20.5 µM)
